Laboratory results as given in patent US7919488B2, “Therapeutic compounds” (Pfizer Inc., priority 2006, dated 2011).

What was measured:
Format in all cases: biochemical
CYP3A4 [1] = target: T1, CYP3A4 (Homo sapiens, UniProt P08684); experiment: IC50 against CYP3A4 by inhibition of testosterone metabolism in human liver microsomes; conditions: 0.1 mg/mL human liver microsomes, 25 μM testosterone, 1 mM NADPH, 6-β-OH-testosterone production, eight minutes; read-out: IC50, μM (HLM, testosterone)
T1 construct: 0.1 mg/mL human liver microsomes; from tissue; host or cells: human liver microsomes
Method: 2. Determination of IC50 Against CYP3A4 by Measurement of Inhibition of Testosterone Metabolism
This assay was performed using a standard 96 well plate design. […] Quantitation of metabolite peak area ratio against an internal standard is determined by LC-MS/MS analysis. The production of 6-β-OH-testosterone from testosterone metabolism is determined after incubation for eight minutes by comparison to a standard curve generated for the metabolite
(§1) Samples were analyzed in the MRM mode using a Sciex API 3000 mass spectrometer (Applied Biosystems, Foster City, Calif.) with a Paradigm MS4 binary pump (Michrom BioResources Inc., Auburn, Calif.) and a LEAP CTC PAL autosampler (LEAP Technologies, Carrboro, N.C.). A Phenomenex Synergi, 4μ, Polar-RP, 10×2.0 mm column (Phenomenex, Torrance, Calif.) was used for separation with a mobile phase composition of: 0.1% formic acid in water (A) and: 0.1% formic acid in methanol (B). The following gradient was used: […]
(§2) The sample injection volume was 10 μL and flow was split post-column with 0.4 mL/min going to the mass spectrometer. Analysis was performed using the following API 3000 mass spectrometer settings: […]

CYP3A4 [2] = target: T1, CYP3A4; experiment: IC50 against CYP3A4 by inhibition of midazolam metabolism in human liver microsomes; conditions: 0.1 mg/mL human liver microsomes, 2 μM midazolam, 1 mM NADPH, 1-hydroxymidazolam production, eight minutes; read-out: IC50, μM (HLM, midazolam)
Method: 3. Determination of IC50 Against CYP3A4 by Measurement of Inhibition of Midazolam Metabolism
This assay was performed using a standard 96 well plate design. […] The incubation substrate mix contains 2 μM midazolam, 0.1 mg/mL human liver microsomes, 1 mM NADPH, and potassium phosphate buffer (100 mM, pH 7.4). Quantitation of metabolite peak area ratio against internal standard is determined by LC-MS/MS analysis. The production of 1-hydroxymidazolam from midazolam metabolism is determined after incubation for eight minutes by comparison to a standard curve generated for the metabolite.
as §1, §2

[3] = target: T2, recombinant CYP3A4-b5 enzyme (Baculosomes®) (Homo sapiens, UniProt P08684); experiment: Kiapp against recombinant CYP3A4 enzyme (Baculosomes), BFC substrate; conditions: recombinant CYP3A4-b5 (Invitrogen), 5 uM BFC, 200 uM NADPH, pre-incubation at least 30 minutes, pH 7.0, room temperature
T2 construct: purchased Invitrogen (Carlsbad, Calif.)
Method: 1. Determination of Compound Kiapp
A determination of the Kiapp of the compounds of the invention against recombinant CYP3A4 enzyme was performed as follows. The assay was performed in a 100 mM sodium phosphate buffer pH 7.0, 5 mM TCEP and containing 2% dimethylformamide (final concentration) upon addition of substrate and inhibitor. A typical reaction for the determination of Kiapp values was carried at room temperature in a solid black Costar u-bottom 96-well polypropylene plate. […] When pre-incubation was completed (˜30 min), the reaction was initiated by adding NADPH (200 uM, final concentration), and 7-benzyloxy-4-(trifluoromethyl)-coumarin (BFC) (5 uM, final concentration). The oxidation of the coumarin substrate was recorded by a 96-well plate reader POLARstar (BMG LABTECH, Offenburg, Germany).
The initial reaction velocities were measured during the first 5 min of the reaction when the release of the fluorescent product is linear with time, in the absence and in the presence of various concentrations of inhibitors.
The fluorescent substrate BFC was purchased from Sigma (St Louis, Mo.). Two commercial sources of recombinant enzymes were used in this study: recombinant CYP3A4-b5 enzyme (Baculosomes®) was purchased from Invitrogen (Carlsbad, Calif.) and the recombinant CYP3A4+b5 enzyme (Supersomes®) was purchased from BD Biosciences (Woburn, Mass.).

T2 sequence (P08684 whole entry): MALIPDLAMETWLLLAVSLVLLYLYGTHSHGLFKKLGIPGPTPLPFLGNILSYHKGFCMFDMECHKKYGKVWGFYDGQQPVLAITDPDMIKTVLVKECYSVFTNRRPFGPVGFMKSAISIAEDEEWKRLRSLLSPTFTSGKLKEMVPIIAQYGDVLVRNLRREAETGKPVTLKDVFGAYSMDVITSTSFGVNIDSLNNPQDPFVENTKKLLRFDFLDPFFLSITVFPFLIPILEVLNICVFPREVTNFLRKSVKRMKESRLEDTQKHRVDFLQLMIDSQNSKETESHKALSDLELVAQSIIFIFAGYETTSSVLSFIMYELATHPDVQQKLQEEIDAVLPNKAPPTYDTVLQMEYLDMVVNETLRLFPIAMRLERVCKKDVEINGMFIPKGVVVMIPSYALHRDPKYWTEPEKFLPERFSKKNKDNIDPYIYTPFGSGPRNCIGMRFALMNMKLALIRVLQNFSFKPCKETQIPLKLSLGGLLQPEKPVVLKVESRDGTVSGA
T1 sequence (P08684 whole entry): as above

SMILES	IC50 (CYP3A4 [1]) [µM]	IC50 (CYP3A4 [2]) [µM]	Ki [3] [µM]
Cc1noc(Cn2nc(-c3ccncc3)cc2Cc2ccc(F)cc2)n1 [Example 59, 4-{5-(4-fluorobenzyl)-1-[(3-methyl-1,2,4-oxadiazol-5-yl)methyl]-1H-pyrazol-3-yl}pyridine]	0.0665	0.0944	0.142
CC(C)(O)CNC(=O)Cn1nc(-c2ccncc2)cc1Cc1ccc(F)cc1 [Example 60, 2-[5-(4-fluorobenzyl)-3-pyridin-4-yl-1H-pyrazol-1-yl]-N-(2-hydroxy-2-methylpropyl)acetamide]	0.032	0.02	0.0765
CN1CCN(C(=O)Cn2nc(-c3ccncc3)cc2Cc2ccc(F)cc2)CC1 [Example 61, 1-{[5-(4-fluorobenzyl)-3-pyridin-4-yl-1H-pyrazol-1-yl]acetyl}-4-methylpiperazine]	0.038	0.016	0.134
O=C(Cn1nc(-c2ccncc2)cc1Cc1ccc(F)cc1)N1CCNCC1 [Example 62, 1-{[5-(4-fluorobenzyl)-3-pyridin-4-yl-1H-pyrazol-1-yl]acetyl}piperazine]	0.111	0.047	0.604
C[C@@H](O)CNC(=O)Cn1nc(-c2ccncc2)cc1Cc1ccc(F)cc1 [Example 63, 2-[5-(4-fluorobenzyl)-3-pyridin-4-yl-1H-pyrazol-1-yl]-N-[(2R)-2-hydroxypropyl]acetamide]	0.048	0.04	0.178
C[C@H](O)CNC(=O)Cn1nc(-c2ccncc2)cc1Cc1ccc(F)cc1 [Example 64, 2-[5-(4-fluorobenzyl)-3-pyridin-4-yl-1H-pyrazol-1-yl]-N-[(2S)-2-hydroxypropyl]acetamide]	0.032	0.028	0.185
N[C@@H]1CCN(C(=O)Cn2nc(-c3ccncc3)cc2Cc2ccc(F)cc2)C1 [Example 65, (3R)-1-{[5-(4-fluorobenzyl)-3-pyridin-4-yl-1H-pyrazol-1-yl]acetyl}pyrrolidin-3-amine]	0.134	0.059	0.673
O=C(CCN1CCOCC1)N1CC(n2nc(-c3ccncc3)cc2Cc2ccc(F)cc2)C1 [Example 67, 4-(3-{3-[5-(4-fluorobenzyl)-3-pyridin-4-yl-1H-pyrazol-1-yl]azetidin-1-yl}-3-oxopropyl)morpholine]	0.052	0.042	0.074
O=C(c1ncccn1)N1CC(n2nc(-c3ccncc3)cc2Cc2ccc(F)cc2)C1 [Example 68, 2-({3-[5-(4-fluorobenzyl)-3-pyridin-4-yl-1H-pyrazol-1-yl]azetidin-1-yl}carbonyl)pyrimidine]	0.081	0.091	0.137
NC(=O)c1noc(Cn2nc(-c3ccncc3)cc2Cc2ccc(F)cc2)n1 [Example 69, 5-{[5-(4-fluorobenzyl)-3-pyridin-4-yl-1H-pyrazol-1-yl]methyl}-1,2,4-oxadiazole-3-carboxamide]	0.0203	0.0555	0.18
Fc1ccc(Cc2cc(-c3ccncc3)nn2Cc2nc(N3CCOCC3)no2)cc1 [Example 70, 4-(5-{[5-(4-fluorobenzyl)-3-pyridin-4-yl-1H-pyrazol-1-yl]methyl}-1,2,4-oxadiazol-3-yl)morpholine]	< 0.012	0.019	0.0238
CN(C)[C@@H]1CCN(C(=O)Cn2nc(-c3ccncc3)cc2Cc2ccc(F)cc2)C1 [Example 72, (3R)-1-{[5-(4-fluorobenzyl)-3-pyridin-4-yl-1H-pyrazol-1-yl]acetyl}-N,N-dimethylpyrrolidin-3-amine]	0.026	0.026	0.226
CNC1CCN(C(=O)Cn2nc(-c3ccncc3)cc2Cc2ccc(F)cc2)C1 (stereo not drawn) [Example 74, 1-{[5-(4-fluorobenzyl)-3-pyridin-4-yl-1H-pyrazol-1-yl]acetyl}-N-methylpyrrolidin-3-amine]	0.114	0.046	0.19
O=C(Cn1nc(-c2ccncc2)cc1Cc1ccc(F)cc1)N1CCC[C@@H]1CO [Example 75, [(2R)-1-{[5-(4-fluorobenzyl)-3-pyridin-4-yl-1H-pyrazol-1-yl]acetyl}pyrrolidin-2-yl]methanol]	0.0215	0.0175	0.118
O=C(Cn1nc(-c2ccncc2)cc1Cc1ccc(F)cc1)N1CCCC(O)C1 (stereo not drawn) [Example 76, 1-{[5-(4-fluorobenzyl)-3-pyridin-4-yl-1H-pyrazol-1-yl]acetyl}piperidin-3-ol]	0.0333	< 0.0184	0.117
O=C(Cn1nc(-c2ccncc2)cc1Cc1ccc(F)cc1)N1CCC[C@H]1CO [Example 77, [(2S)-1-{[5-(4-fluorobenzyl)-3-pyridin-4-yl-1H-pyrazol-1-yl]acetyl}pyrrolidin-2-yl]methanol]	0.0545	0.0511	0.166
CCn1ccnc1CNC(=O)Cn1nc(-c2ccncc2)cc1Cc1ccc(F)cc1 [Example 79, N-[(1-ethyl-1H-imidazol-2-yl)methyl]-2-[5-(4-fluorobenzyl)-3-pyridin-4-yl-1H-pyrazol-1-yl]acetamide]	0.019	0.016	0.052
CCc1nc(CNC(=O)Cn2nc(-c3ccncc3)cc2Cc2ccc(F)cc2)no1 [Example 80, N-[(5-ethyl-1,2,4-oxadiazol-3-yl)methyl]-2-[5-(4-fluorobenzyl)-3-pyridin-4-yl-1H-pyrazol-1-yl]acetamide]	0.065	0.064	0.0516
O=C(Cn1nc(-c2ccncc2)cc1Cc1ccc(F)cc1)NCc1ncc(F)cn1 [Example 81, 2-[5-(4-fluorobenzyl)-3-pyridin-4-yl-1H-pyrazol-1-yl]-N-[(5-fluoropyrimidin-2-yl)methyl]acetamide]	0.068	0.063	0.124
CC(Cc1cnccn1)NC(=O)Cn1nc(-c2ccncc2)cc1Cc1ccc(F)cc1 (stereo not drawn) [Example 82, 2-[5-(4-fluorobenzyl)-3-pyridin-4-yl-1H-pyrazol-1-yl]-N-(1-methyl-2-pyrazin-2-ylethyl)acetamide]	0.025	0.023	0.109
CN(C(=O)Cn1nc(-c2ccncc2)cc1Cc1ccc(F)cc1)[C@H]1CC[C@H](O)CC1 [Example 83, 2-[5-(4-fluorobenzyl)-3-pyridin-4-yl-1H-pyrazol-1-yl]-N-(trans-4-hydroxycyclohexyl)-N-methylacetamide]	0.0235	0.015	0.0458
NC(=O)[C@@H]1CCC[C@@H]1NC(=O)Cn1nc(-c2ccncc2)cc1Cc1ccc(F)cc1 [Example 84, (1R,2S)-2-({[5-(4-fluorobenzyl)-3-pyridin-4-yl-1H-pyrazol-1-yl]acetyl}amino)cyclo-pentanecarboxamide]	0.041	0.021	0.156
CC(NC(=O)Cn1nc(-c2ccncc2)cc1Cc1ccc(F)cc1)c1cnn(C)c1 (stereo not drawn) [Example 85, 2-[5-(4-fluorobenzyl)-3-pyridin-4-yl-1H-pyrazol-1-yl]-N-[1-(1-methyl-1H-pyrazol-4-yl)ethyl]acetamide]	0.028	0.031	0.0843
Cc1cc(CNC(=O)Cn2nc(-c3ccncc3)cc2Cc2ccc(F)cc2)on1 [Example 86, 2-[5-(4-fluorobenzyl)-3-pyridin-4-yl-1H-pyrazol-1-yl]-N-[(3-methylisoxazol-5-yl)methyl]acetamide]	0.013	0.018	0.0571
